Source: patent publication EP1000062B1, “TRICYCLIC VASOPRESSIN AGONISTS” (Wyeth, priority 1997, dated 1999)

Legend:
Vasopressin V2 [1] = test: Vasopressin V2 agonist effects of test compounds in normal conscious water-loaded rats; format: in vivo; conditions: Sprague-Dawley (CD) rats, oral 1 mg/kg, urine collected for four hours; for Osmolality (% Increase): change in osmolality as percent of control; for Urine Volume (% decrease): vs. control
Vasopressin V2 [2] = test: Vasopressin V2 agonist effects of test compounds in normal conscious homozygous Brattleboro rats with central diabetes insipidus; format: in vivo; conditions: Brattleboro (BB) rats, oral 10 mg/kg, urine collected for six hours
Excerpt: Vasopressin V2 Agonist Effects of Test Compounds in Normal Conscious Homozygous Brattleboro Rats with Central Diabetes Insipidus
Male or female homozygous Brattleboro rats (Harlan Sprague Dawley, Inc., Indianapolis, IN) of 250-350 g body weight were supplied with standard rodent diet (Purina Rodent Lab. Chow 5001) and water ad libitum. On the day of test, rats were placed individually into metabolic cages equipped with devices to separate the feces from the urine and containers for collection of urine. Test compound or reference agent was given at an oral dose of 1 to 10 mg/kg in a volume of 10 ml /kg. The vehicle used was 20% dimethylsulfoxide (DMSO) in 2.5% preboiled corn starch. During the test, rats were provided with water ad libitum. Urine was collected for six hours after dosing of the test compound. At the end of six hours, urine volume was measured. Urinary osmolality was determined using a Fiske One-Ten Osmometer (Fiske Associates, Norwood, MA, 02062) or an Advanced CRYOMATIC Osmometer, Model 3C2 (Advanced Instruments, Norwood, MA). Determinations of Na^+, K^+ and Cl^- ion were carried out using ion specific electrodes in a Beckman SYNCHRON EL-ISE Electrolyte System analyzer. This animal model was mainly used for evaluation of potency and duration of action of the active compounds.

Structure (SMILES): Cc1ccn(-c2ccc(C(=O)N3Cc4cccn4Cc4ccccc43)c(C(F)(F)F)c2)n1 [Example 2, [4-(3-Methyl-pyrazol-1-yl)-2-trifluoromethyl-phenyl](5H,11H-pyrrolo[2,1-c]-[1,4]benzadiazepin-10-yl)-methanone]
- Osmolality (% Increase) (Vasopressin V2 [1]): 306% (1 mg/kg)
- Urine Volume (% decrease) (Vasopressin V2 [1]): 80% (1 mg/kg)

Structure (SMILES): Cc1ccn(-c2ncc(C(=O)N3Cc4cccn4Cc4ccccc43)c(C(F)(F)F)n2)n1 [Example 20, [2-(3-Methyl-pyrazol-1-yl)-4-trifluoromethyl-pyrimidin-5-yl]-(5H,11H-pyrrolo[2,1-c][1,4]benzodiazepin-10-yl)-methanone]
- Osmolality (% Increase) (Vasopressin V2 [1]): 152% (1 mg/kg)
- Urine Volume (% decrease) (Vasopressin V2 [1]): 25% (1 mg/kg)

Structure (SMILES): Cn1ncnc1-c1ccc(C(=O)N2Cc3cccn3Cc3ccccc32)cc1 [Example 49, [4-(2-Methyl-2H-[1,2,4]triazol-3-yl)-phenyl]-(5H,11H-pyrrolo[2,1-c][1,4]-benzodiazepin-10-yl)-methanone]
- Osmolality (% Increase) (Vasopressin V2 [2]; change in osmolality as percent of control): 221%
- Urine Volume (% decrease) (Vasopressin V2 [2]; vs. control): 74%
